Molecules are shown by their SMILES. Activity calls are given as the source filed them. No rule for the calls is given here.

In one experiment the target is Prostaglandin E2 receptor EP2 subtype (Homo sapiens) (UniProt P43116). As to the kind of experiment: compounds shifting PGE2 potency at EP2 – cell-based, human EP2, PGE2 EC50 shift, dose response (AID 1421). The following applies: EP2-expressing cells, PGE2 EC50 shift by compound.
Sequence of Prostaglandin E2 receptor EP2 subtype (Homo sapiens) (P43116 whole entry, looked up): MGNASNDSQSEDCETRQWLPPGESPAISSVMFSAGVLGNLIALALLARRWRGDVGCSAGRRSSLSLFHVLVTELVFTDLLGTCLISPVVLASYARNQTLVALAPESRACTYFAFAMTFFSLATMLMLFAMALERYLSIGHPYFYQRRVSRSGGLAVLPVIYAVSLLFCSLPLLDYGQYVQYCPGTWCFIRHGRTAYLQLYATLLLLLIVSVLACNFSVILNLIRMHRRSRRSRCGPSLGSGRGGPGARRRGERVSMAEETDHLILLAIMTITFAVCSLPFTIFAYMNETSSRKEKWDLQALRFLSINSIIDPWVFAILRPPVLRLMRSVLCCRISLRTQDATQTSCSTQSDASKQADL
Regarding `CCOCC(=O)Nc1sc2c(c1C(=O)OCC)CCCC2`, the result was active.

Regarding `C/C(CCc1oc2ccc(Cl)cc2c1-c1ccc(C)o1)=N\O`, the result was active.

In the case of `Cc1ccccc1C(=N)c1ccccc1Cc1cccc2ccccc12`, the result was active. Same read-out and setting: for `Cc1sc(NC(=O)c2ccccc2F)c(CN2CCCCC2)c1C` the value was “active”; for `CCOP(=S)(OCC)Oc1nc(Cl)c(Cl)cc1Cl`, “active”.

Staying with this experiment, now noted: EP2-expressing cells, PGE2 EC50 shift by compound; measured here: PGE2 EC50 at 6.7 uM compound.
Consider `CCCCOc1cc(C)nc(NCc2ccccc2)n1`, for which the PGE2 EC50 with compound is 1.47 nM. With `CCOC(=O)c1c(NC(=O)c2cccs2)sc2c1CCN(C(=O)OCC)C2`, the PGE2 EC50 with compound was found to be 1.53 nM. Regarding `O=C(Nc1cc(S(=O)(=O)Nc2ccc(Cl)cc2)ccc1N1CCCCC1)c1ccc(F)cc1Cl`, the PGE2 EC50 with compound amounted to 0.87 nM. Turning to `COC(=O)c1cc(Br)c(=O)n(-c2nccs2)c1`, the PGE2 EC50 with compound was 2.71 nM. Still for that read-out and setting: the figure for `c1ccc2c(-c3nc(C4CCCCC4)no3)cc(-c3ccncc3)nc2c1` is 0.34 nM.

Regarding `CCOC(=O)C1CCN(c2c(C(=O)c3ccccc3)cnc3ccc(Cl)cc23)CC1`, the PGE2 EC50 with compound came out at 0.89 nM.

In the case of `C=CCSc1ncnc2sc(C)c(C)c12`, the PGE2 EC50 with compound stood at 1.3 nM. The same measure, in the same setting: for `c1ccc(C2=Nc3ccccc3NC(c3ccccc3)C2)cc1` (stereo not drawn) the value was 2.58 nM; for `Cc1cc2ccccn2c1C(=O)c1ccc(Cl)cc1`, 1.24 nM. On the same count and under the same terms, the figure for `COc1ccccc1/C=C/C(=O)OCC(=O)Nc1ccccc1Sc1ccccc1` is 0.76 nM. Still for that read-out and setting: for `Cc1noc(C)c1COC(=O)C(c1ccccc1)c1ccccc1` the value was 1.27 nM; for `CC(Cc1ccccc1)NC(=O)C1(c2ccccc2)CCOCC1` (stereo not drawn), 1.2 nM.

In the case of `COc1ccccc1-c1nnc2sc(-c3cc4ccccc4o3)nn12`, the PGE2 EC50 with compound worked out at 6.03 nM.

In the case of `O=C(N/N=C/c1ccc[nH]1)c1ccccc1OCc1ccccc1Cl`, the PGE2 EC50 with compound is 2.65 nM. Still for that read-out and setting: for `O=C(Nc1cccc(Cl)c1N1CCCC1)c1ccc(Br)o1` the value was 1.61 nM; for `CCCc1cc(-c2nc(N)ncc2-c2ccc3c(c2)OCCCO3)c(O)cc1OC`, 0.86 nM; for `CCC(=O)Oc1ccc(C(CC)C(CC)c2ccc(OC(=O)CC)cc2)cc1` (stereo not drawn), 0.32 nM. Still for that read-out and setting: the figure for `Cc1cccc(Cn2c(=O)n(Cc3ccco3)c(=O)c3ccccc32)c1` is 1.13 nM. The same measure, in the same setting: for `Cc1ccc(-n2nc3c(c2NC(=O)c2ccc(Br)o2)CSC3)c(C)c1` the value was 1.36 nM; for `COc1cc(OC)c2c(OC)c(-c3ccc4c(c3)OCO4)c(=O)oc2c1`, 1.43 nM. For the compound `c1ccc(-c2csc3ncnc(N4CCc5ccccc5C4)c23)cc1`, the PGE2 EC50 with compound was 1.1 nM. On the same count and under the same terms, the figure for `C[C@]12CCC3C(CC[C@H]4C[C@@H](Cl)CC[C@]34C)C1CCC2=O` (stereo partly drawn) is 0.99 nM; for `CCCc1cc(=O)[nH]c(SCC(=O)N2CCC(C(=O)OCC)CC2)n1` it is 0.64 nM. The same measure, in the same setting: for `CCOC(=O)Nc1sc2c(c1C(=O)OCC)CCC2` the value was 0.84 nM. Same read-out and setting: for `O=C(OCC(=O)N1N=C(c2ccc(Cl)cc2)CC1c1ccco1)c1ccco1` (stereo not drawn) the value was 1.63 nM; for `N#CCSc1nc2ccccc2c(=O)n1C1CCCCC1`, 1.09 nM; for `C=CCn1c(=O)c2c3c(sc2n2c(Nc4ccc(OC)cc4)nnc12)CCCC3`, 0.77 nM. `COC(=O)c1c(NC(NC(=O)C(C)C)C(Cl)(Cl)Cl)sc2c1CCCC2` (stereo not drawn): the PGE2 EC50 with compound turned out to be 1 nM. Still for that read-out and setting: the figure for `CCOCC(=O)Nc1sc2c(c1C(=O)OCC)CCCC2` is 1.18 nM; for `CCOC(=O)C1=C(C)NC(C)=C(C(=O)OC)C1c1cccc(Cl)c1Cl` (stereo not drawn) it is 0.69 nM. Same read-out and setting: the figure for `CCN=C1S/C(=C\c2ccc(O)c(OCC)c2)C(=O)N1CC` is 0.81 nM; for `Cc1ccc(N/C(C(Cl)=C(Cl)Cl)=C(/Cl)[N+](=O)[O-])c(C)c1` it is 1.32 nM; for `Cc1cccc(/C=N/Nc2cc(N3CCOCC3)nc(N3CCOCC3)n2)c1` it is 1.08 nM.

For `CCOC(=O)C1=NN(c2ccc(C)cc2)C2(S1)SC(C(C)=O)=C(C)N2c1ccccc1` (stereo not drawn), the PGE2 EC50 with compound worked out at 0.31 nM. As to `Cc1cc(C(=O)CSc2nc3ccccc3c(=O)n2C)c(C)n1Cc1ccc2c(c1)OCO2`, the PGE2 EC50 with compound is 3.33 nM. With `CCOC(=O)CSc1ncnc2c1sc1nc(N3CCOCC3)c3c(c12)CCCC3`, the PGE2 EC50 with compound turned out to be 0.32 nM.

Consider `CCc1nc2c(cnn2-c2ccc(Cl)cc2)c(=O)n1-c1ccc(OC)cc1`, for which the PGE2 EC50 with compound stood at 0.85 nM.

With `Cc1occc1-c1nnc(SCC(=O)Nc2ccccc2N2CCCCC2)n1C`, the PGE2 EC50 with compound turned out to be 2.71 nM.

Regarding `CCCCCCCCCc1ccc(O)cc1`, the PGE2 EC50 with compound was found to be 0.74 nM. Consider `Cc1cccnc1N(C(=O)Nc1ccccc1)C1=NCC(C)(C)S1`, for which the PGE2 EC50 with compound is 0.57 nM.

On to `CCC(=O)N(CC)c1nc(-c2cc(OC)ccc2OC)cs1`, for which the PGE2 EC50 with compound amounted to 1.09 nM. On the same count and under the same terms, for `Cc1ccc(-c2nnn(CC(=O)N(Cc3cccs3)C(C(=O)NC3CCCC3)c3ccncc3)n2)cc1` (stereo not drawn) the value was 0.72 nM; for `CC(C)(C)N(Cc1ccccc1)C(=O)c1ccc(Br)o1`, 0.94 nM. The same measure, in the same setting: the figure for `CCn1c2ccc(F)cc2c2nc3ccccc3nc21` is 0.86 nM; for `Cc1cc(C)c(S(=O)(=O)c2ccccc2)c(OC(=O)c2cc(F)c(F)cc2Cl)n1` it is 0.91 nM; for `Nc1n[nH]c2c1C1(CCCCC1)Cc1ccccc1-2` it is 2.69 nM. The same measure, in the same setting: the figure for `C/C(=N\N=C(c1ccccc1)c1ccccc1)c1ccco1` is 0.97 nM; for `COc1ccc2c(-c3ccccc3)cc(N3CCOCC3)nc2c1` it is 0.74 nM; for `CCn1nnnc1SCC(=O)Nc1cccc(C)n1` it is 1.44 nM. As to `Cc1ccc(C(C)C)c(OCCn2c(=O)oc3ccccc32)c1`, the PGE2 EC50 with compound was found to be 2.6 nM. Consider `O=C(c1cc2sccc2n1Cc1ccccc1)N1CCCc2ccccc21`, for which the PGE2 EC50 with compound amounted to 1.3 nM. For the compound `CCCCc1n[nH]c(=S)n1Cc1ccc(Cl)cc1`, the PGE2 EC50 with compound stood at 1.57 nM. Still for that read-out and setting: for `CC(C)(Sc1ccc(CCN(CCCCC2CCCCC2)C(=O)NC2CCCCC2)cc1)C(=O)O` the value was 1.23 nM; for `Cc1cccc(OCCCC(=O)N2CCCc3ccccc32)c1C`, 0.71 nM. `Cc1cccc(CSc2ncnc3ccccc23)c1`: the PGE2 EC50 with compound is 0.87 nM. The same measure, in the same setting: the figure for `C/C(CCc1oc2ccc(Cl)cc2c1-c1ccc(C)o1)=N\O` is 0.81 nM; for `CCCCc1nc(N2CCOCC2)c(C#N)c2c1CCCC2` it is 0.98 nM. Still for that read-out and setting: for `COc1ccc(N2C(=O)N(Cc3ccc(C)cc3)c3ccccc3S2(=O)=O)cc1` the value was 2.81 nM; for `O=C(Nc1ccccc1-c1nc2ccccc2s1)C1=COCCO1`, 0.46 nM. Same read-out and setting: for `O=C(c1ccccc1O)N1N=C(c2ccccc2)CC1(O)C(F)(F)F` (stereo not drawn) the value was 1.48 nM.

On to `Cc1cc2cc3c(cc2nc1SCC(=O)OC(C)C)OCO3`, for which the PGE2 EC50 with compound was found to be 0.8 nM.

Regarding `CCCCN1C(=O)/C(=C2\SC(N3CCCCC3)=NC2=O)c2ccccc21`, the PGE2 EC50 with compound is 1.26 nM. Still for that read-out and setting: the figure for `COC(=O)c1c(NC(=O)c2cccs2)sc2c1CCC(C)C2` (stereo not drawn) is 0.96 nM; for `Cc1ccccc1C(=N)c1ccccc1Cc1cccc2ccccc12` it is 0.33 nM; for `CC(C)N(CCNC(=O)c1oc(=O)c2ccccc2c1-c1ccccc1)Cc1ccco1` it is 1.6 nM.

Regarding `COC(=O)c1c(NC(=O)c2ccccc2N(C)S(=O)(=O)c2ccccc2)sc2c1CCCC2`, the PGE2 EC50 with compound was found to be 1.49 nM. The same measure, in the same setting: the figure for `CC(Sc1nnc(-c2cccs2)n1Cc1ccccc1)C(=O)NCc1ccc2c(c1)OCO2` (stereo not drawn) is 0.62 nM.

Take `O=C(COc1ccccc1)Nc1cc(C(F)(F)F)ccc1N1CCCC1`: the PGE2 EC50 with compound stood at 0.91 nM.

`CCSc1nc2c(c(=O)[nH]c(=O)n2C)n1Cc1ccc(Cl)cc1`: the PGE2 EC50 with compound came out at 1.24 nM. Consider `Cc1sc(NC(=O)c2ccccc2F)c(CN2CCCCC2)c1C`, for which the PGE2 EC50 with compound is 1.09 nM. Still for that read-out and setting: the figure for `COc1cc(C=O)ccc1OC(=O)c1ccc(C(C)C)cc1` is 1.44 nM; for `CCCn1c(Nc2nc3ccccc3n2C)nc2ccccc21` it is 1.02 nM. In the case of `O=C(O)/C=C/C(O)c1ccc(Cl)cc1` (stereo not drawn), the PGE2 EC50 with compound is 0.97 nM. `CCOc1nc(C)cc(C)c1S(=O)(=O)c1ccc(Cl)cc1`: the PGE2 EC50 with compound is 1.56 nM. Take `CCOC(=O)c1c(/N=C/C2C(=O)CCCC2=O)sc2c1CCCC2`: the PGE2 EC50 with compound was 1.32 nM. On to `N#Cc1sc2nc(C3CC3)cc(-c3ccccc3)c2c1N`, for which the PGE2 EC50 with compound came to 0.78 nM. As to `Cc1cc(C)c(S(=O)(=O)O)c(C)n1`, the PGE2 EC50 with compound came out at 1.25 nM.

Turning to `CCCCc1nnc(SCCSc2nnc(CCCC)n2N)n1N`, the PGE2 EC50 with compound was determined as 1 nM. On the same count and under the same terms, the figure for `Cc1cccc(NC2=NC(=S)N(c3ccc(C(=O)O)cc3)C23CCCCC3)c1` is 0.8 nM; for `Cc1cc2ccccc2nc1SCC(=O)NC1CCCC1` it is 1.4 nM; for `NCCc1c(-c2ccccc2)n(-c2ccccc2)c2ccccc12` it is 1.25 nM. On the same count and under the same terms, the figure for `Cc1cc(C(=O)Nc2cccc(/C=C/C(=O)O)c2)c(C)o1` is 0.36 nM. The same measure, in the same setting: the figure for `Cc1cc(-c2ccccc2)nc2cc(C(=O)N(Cc3ccccc3)Cc3ccccc3)nn12` is 1.03 nM; for `Cc1ccc2cccc(NC(=O)c3ccc(Br)o3)c2n1` it is 0.83 nM. For `O=C(Nc1ccccc1N1CCCCC1)c1cccc([N+](=O)[O-])c1`, the PGE2 EC50 with compound stood at 0.9 nM. Still for that read-out and setting: for `Cn1c(C(=O)N2CCCc3ccccc32)cc2sccc21` the value was 2.41 nM. Same read-out and setting: for `CCCCOP(=O)(OCCCC)C(Nc1ccccc1)c1ccc2c(c1)OCO2` (stereo not drawn) the value was 0.8 nM; for `Cc1cc(NC(=O)C2=C(O)c3ccccc3S(=O)(=O)N2C)no1`, 1.8 nM. Still for that read-out and setting: the figure for `CCN1CCN(c2c(Cl)cccc2NC(=O)c2ccc(Br)o2)CC1` is 2.53 nM.

For `O=c1cc(N2CCCCC2)c(-c2ccccc2)nn1Cc1c(Cl)cccc1Cl`, the PGE2 EC50 with compound came out at 0.71 nM. The same measure, in the same setting: for `COc1cc(NC(=S)NC(=O)c2cc(C)cc(C)c2)ccc1NC(=O)c1cccs1` the value was 2.54 nM. Still for that read-out and setting: the figure for `C=CCc1cccc(/C=N/c2nc3ccccc3n2CC)c1O` is 0.63 nM; for `CCOP(=S)(OCC)Oc1nc(Cl)c(Cl)cc1Cl` it is 0.91 nM.

The values above are taken from PubChem BioAssay AID1421 (Emory University Molecular Libraries Screening Center, 2008).
